Source: patent publication US11795171B2, “Pyrrolotriazinones and imidazotriazinones as ubiquitin-specific protease 7 inhibitors” (Valo Health, Inc., priority 2014, dated 2023)

Each compound was assayed against USP7 (Homo sapiens (Human), UniProt Q93009) (assay: USP7 Assay B (Ubitquin-Rhodamine110 Assay)). Details: Ub-Rh110 substrate 25 nM.
USP7, sequence (Q93009 208-1102): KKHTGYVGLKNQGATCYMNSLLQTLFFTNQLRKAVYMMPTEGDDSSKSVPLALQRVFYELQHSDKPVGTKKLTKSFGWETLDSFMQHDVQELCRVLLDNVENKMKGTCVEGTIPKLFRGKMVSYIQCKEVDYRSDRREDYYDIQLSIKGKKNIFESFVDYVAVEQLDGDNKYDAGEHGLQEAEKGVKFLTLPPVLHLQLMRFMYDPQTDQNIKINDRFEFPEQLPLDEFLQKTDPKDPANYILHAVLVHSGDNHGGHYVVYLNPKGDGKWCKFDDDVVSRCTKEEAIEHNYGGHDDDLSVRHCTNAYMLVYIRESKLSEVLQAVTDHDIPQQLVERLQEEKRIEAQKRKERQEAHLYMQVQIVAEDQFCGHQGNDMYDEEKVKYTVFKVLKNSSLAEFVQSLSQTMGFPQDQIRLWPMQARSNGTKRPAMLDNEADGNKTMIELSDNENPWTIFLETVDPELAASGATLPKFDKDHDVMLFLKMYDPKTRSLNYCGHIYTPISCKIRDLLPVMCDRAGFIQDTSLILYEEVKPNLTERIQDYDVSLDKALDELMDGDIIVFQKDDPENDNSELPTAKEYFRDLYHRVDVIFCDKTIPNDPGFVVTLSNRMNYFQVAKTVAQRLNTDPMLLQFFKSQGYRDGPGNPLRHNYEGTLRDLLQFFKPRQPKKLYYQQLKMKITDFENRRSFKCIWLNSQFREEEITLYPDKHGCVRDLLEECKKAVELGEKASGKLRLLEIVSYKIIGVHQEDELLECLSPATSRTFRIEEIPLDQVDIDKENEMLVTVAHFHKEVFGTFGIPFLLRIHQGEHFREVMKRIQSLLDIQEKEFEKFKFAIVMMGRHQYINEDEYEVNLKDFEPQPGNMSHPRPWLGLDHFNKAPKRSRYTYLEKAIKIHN
Type: biochemical
For `COc1cccc(NC(=O)Nc2cc3c(=O)n(CC4(O)CCN(C(=O)C5CC5)CC4)cnn3c2)c1` [Compound I-101, 1-(3-((1-(cyclopropanecarbonyl)-4-hydroxypiperidin-4-yl)methyl)-4-oxo-3,4-dihydropyrrolo[2,1-f][1,2,4]triazin-6-yl)-3-(3-methoxyphenyl)urea], the IC50 was > 10 µM. In the case of `CCNC(=O)c1ccc(-c2ccc(C(=O)N3CCC(O)(Cn4cnn5cccc5c4=O)CC3)cc2)cc1` [Compound I-41, N-ethyl-4′-(4-hydroxy-4-((4-oxopyrrolo[2,1-f][1,2,4]triazin-3(4H)-yl)methyl)piperidine-1-carbonyl)-[1,1′-biphenyl]-4-carboxamide], the IC50 is reported as > 10 µM. `CC(CC(=O)N1CCC(O)(Cn2cnn3cc(Cl)cc3c2=O)CC1)c1ccccc1` (stereo not shown) [Compound I-49, 6-chloro-3-((4-hydroxy-1-(3-phenylbutanoyl)piperidin-4-yl)methyl)pyrrolo[2,1-f][1,2,4]triazin-4(3H)-one] gave an IC50 of 1 to 10 µM. In the case of `Cc1ccc(-c2cccc(C(=O)N3CCC(O)(Cn4cnn5cccc5c4=O)CC3)c2)cc1C` [Compound I-17, 3-((1-(3′,4′-dimethyl-[1,1′-biphenyl]-3-carbonyl)-4-hydroxypiperidin-4-yl)methyl)pyrrolo[2,1-f][1,2,4]triazin-4(3H)-one], the IC50 is reported as > 10 µM. With `O=C(Nc1cc2c(=O)n(CC3(O)CCN(C(=O)C4CC4)CC3)cnn2c1)c1ccc(Cl)cc1Cl` [Compound I-111, 2,4-dichloro-N-(3-((1-(cyclopropanecarbonyl)-4-hydroxypiperidin-4-yl)methyl)-4-oxo-3,4-dihydropyrrolo[2,1-f][1,2,4]triazin-6-yl)benzamide] the IC50 was > 10 µM. With `O=C(c1ccc(Cn2nnc3ccccc32)cc1)N1CCC(O)(Cn2cnn3cccc3c2=O)CC1` [Compound I-68, 3-((1-(4-((1H-benzo[d][1,2,3]triazol-1-yl)methyl)benzoyl)-4-hydroxypiperidin-4-yl)methyl)pyrrolo[2,1-f][1,2,4]triazin-4(3H)-one] the IC50 was 1 to 10 µM. `Cc1ccc2c(=O)n(CC3(O)CCN(C(=O)CC(C)c4ccccc4)CC3)cnn12` (stereo not shown) [Compound I-76, 3-((4-hydroxy-1-(3-phenylbutanoyl)piperidin-4-yl)methyl)-7-methylpyrrolo[2,1-f][1,2,4]triazin-4(3H)-one] gave an IC50 of 0.2 to 1 µM. `O=C(c1ccc(Cn2cccn2)cc1)N1CCC(O)(Cn2cnn3cccc3c2=O)CC1` [Compound I-65, 3-((1-(4-((1H-pyrazol-1-yl)methyl)benzoyl)-4-hydroxypiperidin-4-yl)methyl)pyrrolo[2,1-f][1,2,4]triazin-4(3H)-one] gave an IC50 of 1 to 10 µM. With `COc1cc(OC)cc(-c2ccc(C(=O)N3CCC(O)(Cn4cnn5cccc5c4=O)CC3)cc2)c1` [Compound I-44, 3-((1-(3′,5′-dimethoxy-[1,1′-biphenyl]-4-carbonyl)-4-hydroxypiperidin-4-yl)methyl)pyrrolo[2,1-f][1,2,4]triazin-4(3H)-one] the IC50 was > 10 µM. In the case of `C[C@H](CC(=O)N1CCC(O)(Cn2cnn3cccc3c2=O)CC1)c1ccccc1` [Compound I-56, (R)-3-((4-hydroxy-1-(3-phenylbutanoyl)piperidin-4-yl)methyl)pyrrolo[2,1-f][1,2,4]triazin-4(3H)-one], the IC50 is reported as < 0.2 µM. `Cc1ccc(CNC(=O)Nc2cc3c(=O)n(CC4(O)CCN(C(=O)C5CC5)CC4)cnn3c2)cc1` [Compound I-92, 1-(3-((1-(cyclopropanecarbonyl)-4-hydroxypiperidin-4-yl)methyl)-4-oxo-3,4-dihydropyrrolo[2,1-f][1,2,4]triazin-6-yl)-3-(4-methylbenzyl)urea] was tested, and the IC50 was > 10 µM. For `O=C(c1ccc(Cn2cnc3ccccc32)cc1)N1CCC(O)(Cn2cnn3cccc3c2=O)CC1` [Compound I-64, 3-((1-(4-((1H-benzo[d]imidazol-1-yl)methyl)benzoyl)-4-hydroxypiperidin-4-yl)methyl)pyrrolo[2,1-f][1,2,4]triazin-4(3H)-one], the IC50 was 1 to 10 µM. `Cc1cccc(NC(=O)Nc2cc3c(=O)n(CC4(O)CCN(C(=O)C5CC5)CC4)cnn3c2)c1C` [Compound I-98, 1-(3-((1-(cyclopropanecarbonyl)-4-hydroxypiperidin-4-yl)methyl)-4-oxo-3,4-dihydropyrrolo[2,1-f][1,2,4]triazin-6-yl)-3-(2,3-dimethylphenyl)urea] was tested, and the IC50 was > 10 µM. With `O=C(NCc1ccccc1F)Nc1cc2c(=O)n(CC3(O)CCN(C(=O)C4CC4)CC3)cnn2c1` [Compound I-94, 1-(3-((1-(cyclopropanecarbonyl)-4-hydroxypiperidin-4-yl)methyl)-4-oxo-3,4-dihydropyrrolo[2,1-f][1,2,4]triazin-6-yl)-3-(2-fluorobenzyl)urea] the IC50 was > 10 µM. With `O=C(c1cccc(-c2ccc3c(c2)OCO3)c1)N1CCC(O)(Cn2cnn3cccc3c2=O)CC1` [Compound I-5, 3-((1-(3-(benzo[d][1,3]dioxol-5-yl)benzoyl)-4-hydroxypiperidin-4-yl)methyl)pyrrolo[2,1-f][1,2,4]triazin-4(3H)-one] the IC50 was 1 to 10 µM. `CC(CC(=O)N1CCC(O)(Cn2cnn3cccc3c2=O)CC1)c1ccccc1` (stereo not shown) [Compound I-1, 3-((4-hydroxy-1-(3-phenylbutanoyl)piperidin-4-yl)methyl)pyrrolo[2,1-f][1,2,4]triazin-4(3H)-one] showed an IC50 of 0.2 to 1 µM. For `Cc1c(F)cccc1NC(=O)Nc1cc2c(=O)n(CC3(O)CCN(C(=O)C4CC4)CC3)cnn2c1` [Compound I-97, 1-(3-((1-(cyclopropanecarbonyl)-4-hydroxypiperidin-4-yl)methyl)-4-oxo-3,4-dihydropyrrolo[2,1-f][1,2,4]triazin-6-yl)-3-(3-fluoro-2-methylphenyl)urea], the IC50 was > 10 µM. Work on `CN(C)C(=O)c1ccc(-c2ccc(C(=O)N3CCC(O)(Cn4cnn5cccc5c4=O)CC3)cc2)cc1` [Compound I-38, 4′-(4-hydroxy-4-((4-oxopyrrolo[2,1-f][1,2,4]triazin-3(4H)-yl)methyl)piperidine-1-carbonyl)-N,N-dimethyl-[1,1′-biphenyl]-4-carboxamide] yielded an IC50 of 1 to 10 µM. With `CC(CC(=O)N1CCC(O)(Cn2cnn3cccc3c2=O)CC1)n1cccc1` (stereo not shown) [Compound I-57, 3-((1-(3-(1H-pyrrol-1-yl)butanoyl)-4-hydroxypiperidin-4-yl)methyl)pyrrolo[2,1-f][1,2,4]triazin-4(3H)-one] the IC50 was < 0.2 µM. `Cc1cc(-c2cccc(C(=O)N3CCC(O)(Cn4cnn5cccc5c4=O)CC3)c2)ccc1F` [Compound I-9, 3-((1-(4′-fluoro-3′-methyl-[1,1′-biphenyl]-3-carbonyl)-4-hydroxypiperidin-4-yl)methyl)pyrrolo[2,1-f][1,2,4]triazin-4(3H)-one] was tested, and the IC50 was > 10 µM. In the case of `O=C(c1cccc(-c2ccccc2F)c1)N1CCC(O)(Cn2cnn3cccc3c2=O)CC1` [Compound I-29, 3-((1-(2′-fluoro-[1,1′-biphenyl]-3-carbonyl)-4-hydroxypiperidin-4-yl)methyl)pyrrolo[2,1-f][1,2,4]triazin-4(3H)-one], the IC50 is reported as 1 to 10 µM. `O=C(Nc1cc2c(=O)n(CC3(O)CCN(C(=O)C4CC4)CC3)cnn2c1)c1ccc(C(F)(F)F)cc1` [Compound I-102, N-(3-((1-(cyclopropanecarbonyl)-4-hydroxypiperidin-4-yl)methyl)-4-oxo-3,4-dihydropyrrolo[2,1-f][1,2,4]triazin-6-yl)-4-(trifluoromethyl)benzamide] was tested, and the IC50 was > 10 µM. For `O=C(c1ccc(CN2CCCCC2)cc1Cl)N1CCC(O)(Cn2cnn3cccc3c2=O)CC1` [Compound I-75, 3-((1-(2-chloro-4-(piperidin-1-ylmethyl)benzoyl)-4-hydroxypiperidin-4-yl)methyl)pyrrolo[2,1-f][1,2,4]triazin-4(3H)-one], the IC50 was > 10 µM. `Cc1ccc2c(=O)n(CC3(O)CCN(C(=O)C(C)Cc4ccccc4)CC3)cnn12` (stereo not shown) [Compound I-77, 3-((4-hydroxy-1-(2-methyl-3-phenylpropanoyl)piperidin-4-yl)methyl)-7-methylpyrrolo[2,1-f][1,2,4]triazin-4(3H)-one] showed an IC50 of 1 to 10 µM. With `CN(C)C(=O)c1ccc(-c2ccc(C(=O)N3CCC(O)(Cn4cnn5cccc5c4=O)CC3)c(Cl)c2)cc1` [Compound I-78, 3′-chloro-4′-(4-hydroxy-4-((4-oxopyrrolo[2,1-f][1,2,4]triazin-3(4H)-yl)methyl)piperidine-1-carbonyl)-N,N-dimethyl-[1,1′-biphenyl]-4-carboxamide] the IC50 was > 10 µM. For `COc1ccc(OC)c(-c2ccc(C(=O)N3CCC(O)(Cn4cnn5cccc5c4=O)CC3)cc2)c1` [Compound I-40, 3-((1-(2′,5′-dimethoxy-[1,1′-biphenyl]-4-carbonyl)-4-hydroxypiperidin-4-yl)methyl)pyrrolo[2,1-f][1,2,4]triazin-4(3H)-one], the IC50 was > 10 µM. In the case of `COc1cccc(-c2ccc(C(=O)N3CCC(O)(Cn4cnn5cccc5c4=O)CC3)cc2)c1` [Compound I-35, 3-((4-hydroxy-1-(3′-methoxy-[1,1′-biphenyl]-4-carbonyl)piperidin-4-yl)methyl)pyrrolo[2,1-f][1,2,4]triazin-4(3H)-one], the IC50 is reported as > 10 µM. In the case of `O=C(c1cccc(-c2ccc(C(F)(F)F)cc2)c1)N1CCC(O)(Cn2cnn3cccc3c2=O)CC1` [Compound I-15, 3-((4-hydroxy-1-(4′-(trifluoromethyl)-[1,1′-biphenyl]-3-carbonyl)piperidin-4-yl)methyl)pyrrolo[2,1-f][1,2,4]triazin-4(3H)-one], the IC50 is reported as > 10 µM. With `O=C(Nc1cc2c(=O)n(CC3(O)CCN(C(=O)C4CC4)CC3)cnn2c1)c1ccccc1OC(F)(F)F` [Compound I-110, N-(3-((1-(cyclopropanecarbonyl)-4-hydroxypiperidin-4-yl)methyl)-4-oxo-3,4-dihydropyrrolo[2,1-f][1,2,4]triazin-6-yl)-2-(trifluoromethoxy)benzamide] the IC50 was > 10 µM. With `CC(C)(C#N)c1ccc(C(=O)N2CCC(O)(Cn3cnn4cccc4c3=O)CC2)cc1` [Compound I-31, 2-(4-(4-hydroxy-4-((4-oxopyrrolo[2,1-f][1,2,4]triazin-3(4H)-yl)methyl)piperidine-1-carbonyl)phenyl)-2-methylpropanenitrile] the IC50 was > 10 µM. `O=C(c1ccc(Cc2cccs2)cc1)N1CCC(O)(Cn2cnn3cccc3c2=O)CC1` [Compound I-70, 3-((4-hydroxy-1-(4-(thiophen-2-ylmethyl)benzoyl)piperidin-4-yl)methyl)pyrrolo[2,1-f][1,2,4]triazin-4(3H)-one] gave an IC50 of 1 to 10 µM.
